Numbering of substitutions follows the chain as printed.

The target in one assay is IGF-1R (Homo sapiens, UniProt P08069). Put plainly: Kinase profiling screen (radioactive filter-binding assay). The class given is biochemical. To be noted: 100 μM compound, 5 μM ATP; read-out: Kinase activity, % of activity in the absence of inhibitor. The procedure, abridged:
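Single-point in vitro screen: 100 μM final of CoA, dpCoA and ADP, run in duplicate against recombinant kinase with a model substrate and optimal ATP.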

For a further assay, the target named is T1, C290A Aurora A (Homo sapiens, UniProt O14965, C290A).
T1 construct: For enzyme and DSF assays, full-length human Aurora A and Aurora B and 1–43 TPX2 were produced; made in house; host or cells: E. coli BL21 (DE3) pLysS
T1 sequence (O14965 whole entry C290A): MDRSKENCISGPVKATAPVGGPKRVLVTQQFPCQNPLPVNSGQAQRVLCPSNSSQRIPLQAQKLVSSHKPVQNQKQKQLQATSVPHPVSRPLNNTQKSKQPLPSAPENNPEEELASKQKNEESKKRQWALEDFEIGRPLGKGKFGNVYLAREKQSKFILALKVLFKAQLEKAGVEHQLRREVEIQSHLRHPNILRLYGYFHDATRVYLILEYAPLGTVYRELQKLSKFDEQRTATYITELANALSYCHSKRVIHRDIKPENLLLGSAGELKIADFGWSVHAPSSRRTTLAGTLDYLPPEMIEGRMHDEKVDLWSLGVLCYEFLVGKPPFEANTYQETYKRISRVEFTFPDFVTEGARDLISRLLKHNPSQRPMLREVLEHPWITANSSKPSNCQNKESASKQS
Put plainly: Thermal shift assay (differential scanning fluorimetry). Format: binding. The settings on record: 5 mM ATP or 5 mM CoA. As for the experimental part:
(§1) Asp274Asn and Thr217Glu Aurora A mutants were generated by PCR-site directed mutagenesis, expressed and purified as described previously. Cys290Ala Aurora A was generated using standard procedures, and purified as described.
(§2) Thermal-shift assays were performed with a StepOnePlus Real-Time PCR machine (Life Technologies) using Sypro-Orange dye (Invitrogen) and thermal ramping (0.3 °C in step intervals between 25 and 94 °C). All proteins were diluted to a final concentration of 5 μM in 50 mM Tris/HCl, pH 7.4 and 100 mM NaCl in the presence or absence of the indicated concentrations of ligand (final DMSO concentration no higher than 4 % v/v). CoA, dephosphoCoA or kinase inhibitors diluted from 10 mM DMSO stocks were assayed as described previously. Normalized data were processed using the Boltzmann equation to generate sigmoidal denaturation curves, and average Tm/ΔTm values calculated as previously described using GraphPad Prism software.
(Differential scanning fluorimetry follows unfolding on heating by fluorescence.)

The next assay deals with T2, T217E Aurora A (Homo sapiens, UniProt O14965, T217E).
T2 construct: For enzyme and DSF assays, full-length human Aurora A and Aurora B and 1–43 TPX2 were produced; made in house; host or cells: E. coli
T2 sequence (O14965 1-403 T217E): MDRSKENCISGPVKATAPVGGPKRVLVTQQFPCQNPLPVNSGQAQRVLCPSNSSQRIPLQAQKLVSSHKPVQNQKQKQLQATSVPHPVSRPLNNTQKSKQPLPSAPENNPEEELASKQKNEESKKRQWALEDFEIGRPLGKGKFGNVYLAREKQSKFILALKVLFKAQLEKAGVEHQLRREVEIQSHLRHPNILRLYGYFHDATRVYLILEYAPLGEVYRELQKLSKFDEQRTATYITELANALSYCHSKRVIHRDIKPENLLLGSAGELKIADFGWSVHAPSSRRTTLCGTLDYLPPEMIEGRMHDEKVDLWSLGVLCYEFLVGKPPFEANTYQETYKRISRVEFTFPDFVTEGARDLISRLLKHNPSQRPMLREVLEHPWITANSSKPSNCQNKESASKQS
The description is as above. To be noted: 5 mM ATP, 5 mM CoA or 0.1 mM MLN8237. Format: binding. The method, then: as §1, §2

Assay [1] deals with T3, WT Aurora A (T288 phosphorylated, active) (Homo sapiens, UniProt O14965).
T3 construct: Bacterially expressed full-length His-Aurora A was used to determine the IC50 value for CoA; made in house; host or cells: E. coli BL21 (DE3) pLysS
T3 sequence (O14965 1-403): T2 sequence (O14965 1-403 T217E) with E217T
The description is as above. To be noted: 5 mM ATP, 5 mM CoA or 0.1 mM MLN8237; for CoA dependent on non-reducing conditions. Format: binding. As for the experimental part:
as §1, §2

For assay [2], the target named is T4, kinase-dead D274N (inactive) Aurora A (Homo sapiens, UniProt O14965, D274N).
T4 construct: For enzyme and DSF assays, full-length human Aurora A and Aurora B and 1–43 TPX2 were produced; 6His (N); made in house; host or cells: E. coli
T4 sequence (O14965 whole entry D274N): as the sequence (O14965 whole entry C290A) above, with D274N, A290C counted along it
The description is as above. Format: binding. To be noted: 5 mM ATP or 5 mM CoA; CoA DTT-dependent. The method, then:
as §1, §2

IGF-1R, sequence (P08069 31-1367): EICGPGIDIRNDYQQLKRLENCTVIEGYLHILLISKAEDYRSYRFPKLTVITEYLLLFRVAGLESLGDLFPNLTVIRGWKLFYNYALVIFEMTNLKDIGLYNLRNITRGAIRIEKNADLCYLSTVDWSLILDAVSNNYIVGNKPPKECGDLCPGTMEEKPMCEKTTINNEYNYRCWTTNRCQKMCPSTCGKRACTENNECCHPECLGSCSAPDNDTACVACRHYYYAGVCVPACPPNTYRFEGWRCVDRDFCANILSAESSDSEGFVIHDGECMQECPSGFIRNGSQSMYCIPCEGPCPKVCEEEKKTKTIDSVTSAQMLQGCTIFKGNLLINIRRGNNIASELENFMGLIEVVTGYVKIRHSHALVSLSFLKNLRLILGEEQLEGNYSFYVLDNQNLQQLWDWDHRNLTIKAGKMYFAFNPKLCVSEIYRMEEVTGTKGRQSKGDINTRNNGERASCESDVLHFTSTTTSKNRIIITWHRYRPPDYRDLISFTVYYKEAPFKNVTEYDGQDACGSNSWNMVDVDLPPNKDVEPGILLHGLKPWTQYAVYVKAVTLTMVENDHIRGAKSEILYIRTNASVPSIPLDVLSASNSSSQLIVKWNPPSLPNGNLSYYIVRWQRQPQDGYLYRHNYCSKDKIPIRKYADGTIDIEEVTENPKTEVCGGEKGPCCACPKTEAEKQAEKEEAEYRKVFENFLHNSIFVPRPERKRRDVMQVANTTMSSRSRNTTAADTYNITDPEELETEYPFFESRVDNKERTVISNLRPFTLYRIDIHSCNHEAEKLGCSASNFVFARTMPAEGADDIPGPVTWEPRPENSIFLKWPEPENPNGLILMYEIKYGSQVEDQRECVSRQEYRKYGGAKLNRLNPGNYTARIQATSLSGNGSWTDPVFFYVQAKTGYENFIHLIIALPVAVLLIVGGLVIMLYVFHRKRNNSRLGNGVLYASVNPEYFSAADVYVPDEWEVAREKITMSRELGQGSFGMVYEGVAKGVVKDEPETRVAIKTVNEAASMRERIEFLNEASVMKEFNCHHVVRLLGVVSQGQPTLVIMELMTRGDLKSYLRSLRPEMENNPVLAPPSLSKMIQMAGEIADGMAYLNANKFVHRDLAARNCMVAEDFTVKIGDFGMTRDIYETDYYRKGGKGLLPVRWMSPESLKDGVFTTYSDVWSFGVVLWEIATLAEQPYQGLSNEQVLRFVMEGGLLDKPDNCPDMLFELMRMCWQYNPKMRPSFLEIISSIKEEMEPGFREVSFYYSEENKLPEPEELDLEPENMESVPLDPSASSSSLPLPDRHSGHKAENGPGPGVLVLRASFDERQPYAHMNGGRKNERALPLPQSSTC

Consider `CC(C)(COP(=O)(O)OP(=O)(O)OC[C@H]1O[C@@H](n2cnc3c(N)ncnc32)[C@H](O)[C@@H]1OP(=O)(O)O)[C@@H](O)C(=O)NCCC(=O)NCCS` [CoA, Coenzyme A], for which, on IGF-1R, the activity at 100 µM was determined as 93%. Moreover, the “Ligand binding / thermal stabilization” value on C290A Aurora A is on record as “deficient in CoA-induced thermal stabilization”. Also, the Ligand-induced thermal shift result on T217E Aurora A is listed as “completely abolished”. The “Change in thermal stability (ΔTm)” value in assay [1] is “marked change in thermal stability”. For the same molecule, the “Ligand interaction by thermal shift” value in assay [2] is “still able to interact”.

Source of the values: publication PMC6812009, “Covalent Aurora A regulation by the metabolic integrator coenzyme A” (Redox Biology, 2019).
